# According to US12696900B2, “Crop enhancement” (SYNGENTA CROP PROTECTION AG, priority 2020, dated 2026):
# How the values were obtained:
# [1] = test system: Corn seeds (var. NK Falkone); experiment: Corn germination test (24 well plates, kinetic analysis of germination); type: in vivo; conditions: for Plateau of Germination (total percentage of germinated seeds), Sign. / Time taken to reach 50% germination of corn, Sign. / Uniformity of Germination (slope of the curve), Sign.: significance vs untreated, p<0.05, ns=not significant; for Plateau of Germination (total percentage of germinated seeds), total % of germinated seeds / Time taken to reach 50% germination of corn, Relative T50 / Uniformity of Germination (slope of the curve), Relative slope: untreated = 100
# Experimental: Corn seeds (var. NK Falkone, Syngenta Seeds SAS, St. Sauveur, France) were sorted by size using a sieve to eliminate round seeds. The corn seeds were placed in 24 well plates (1 seed per well; each plate was considered as one experimental unit or replicate). Germination was initiated by the addition of 250 μl of distilled water containing 0.5% dimethyl sulfoxide (DMSO) to each well (with isocycloseram present at a concentration of either 1, 5, 25 or 125 μM). 8 replicates (i.e. 8 plates) were used for each treatment characterisation. The plates were sealed using seal foil (Polyolefin Art. Nr. 900320) from HJ-BIOANALYTIK. All plates were placed in a climatic chamber at either 15° C. or 23° C., with 60% Relative Humidity. The experiment was laid out in a completely randomized design. Germination was followed over time by taking photographs at different time points. Image analysis was performed automatically with a macro which was developed using the Image J software. A kinetic analysis of germination was carried out by fitting a trend curve. Three parameters were calculated from the trend curve: the T50 (time taken for 50% germination; related to speed of germination); the slope of the curve (the uniformity of germination) and the plateau (the total percentage of germinated seeds). […] The results are expressed in terms of percentage in comparison to the control (untreated seeds) for each temperature group respectively. The results were analysed statistically to highlight significant differences (p<0.05). (Key: Sign.=significance; ns=not significant)
# All three parameters have a high agronomical relevance. Significant differences between treated seeds and untreated control are given at p<0.05 (Anova). T50 corresponds to the time needed for half of the seed population to germinate; lower values indicate faster germination. Slope indicates how synchronous the germination of the seed population is; values greater than 100 indicate a steeper curve. The steeper the curve, the better and more uniform the germination is. […] At the two highest rates, the speed of germination (T50) was faster at both temperatures, indicating a positive impact on germination speed.
# [2] = test system: Wheat seeds (winter wheat variety Syllon); experiment: Wheat germination test under increased salinity (salt stress); type: in vivo; conditions: for Time taken to reach 50% germination of wheat, Sign. / Time taken to reach 50% germination of wheat, Relative T50: increased salinity, 12.5 mM NaCl solution, 23° C.; for Time taken to reach 50% germination of wheat, Sign.: significance vs untreated, p<0.05; for Time taken to reach 50% germination of wheat, Relative T50: untreated = 100
# Experimental: Wheat seeds (winter wheat variety Syllon, Syngenta Seeds) were placed in 24 well plates (1 seed per well, each plate was considered as one experimental unit or replicate). […] Subsequently, a salt solution was prepared at this concentration and spiked with the test compound at different rates as shown below in Table 3, and the germination test was repeated under salt stress. Eight replicates (i.e. 8 plates) were used for each treatment. Plates were sealed with seal foil (Polyolefin Art. Nr. 900320) from HJ-BIOANALYTIK. All plates were placed in a climatic chamber at 23° C. with 70% Relative Humidity. The experiment was laid out in a completely randomized design. Germination was followed over time by taking photographs at different time points. Image analysis was performed automatically with a macro which was developed using the Image J software. A kinetic analysis of germination was carried out by fitting a trend curve. Three parameters were calculated from the trend curve: the T50 (time taken for 50% germination; speed of germination); the slope of the curve (the uniformity of germination) and the plateau (the total percentage of germinated seeds). […] The results are expressed in terms of percentage in comparison to the check (untreated seeds) and the results are analysed statistically to highlight significant differences (p<0.05). (Key: Sign.=significance)
# T50 corresponds to the time needed for half of the seed population to germinate and is a germination parameter of high agronomical relevance. Significant differences between treated seeds and untreated control are given at p<0.05 (Anova). Lower values indicate faster germination.
# [3] = 15° C. (cold conditions), isocycloseram 1 μM
# [4] = 15° C. (cold conditions), isocycloseram 5 μM
# [5] = 15° C. (cold conditions), isocycloseram 25 μM
# [6] = 15° C. (cold conditions), isocycloseram 125 μM
# [7] = 23° C. (normal conditions), isocycloseram 1 μM
# [8] = 23° C. (normal conditions), isocycloseram 5 μM
# [9] = 23° C. (normal conditions), isocycloseram 25 μM
# [10] = 23° C. (normal conditions), isocycloseram 125 μM
smiles,measurement,setting,value
"CCN1OCC(NC(=O)c2ccc(C3=NOC(c4cc(Cl)c(F)c(Cl)c4)(C(F)(F)F)C3)cc2C)C1=O (stereo not shown) [Isocycloseram, isocycloseram]","Plateau of Germination (total percentage of germinated seeds), Sign.",[1]; [3],ns
same,"Time taken to reach 50% germination of corn, Sign.",[1]; [3],ns
same,"Uniformity of Germination (slope of the curve), Sign.",[1]; [3],ns
same,"Plateau of Germination (total percentage of germinated seeds), total % of germinated seeds",[1]; [3],103 percentage in comparison to the control
same,"Time taken to reach 50% germination of corn, Relative T50",[1]; [3],99.67 percentage in comparison to the control
same,"Uniformity of Germination (slope of the curve), Relative slope",[1]; [3],100 percentage in comparison to the control
same,"Plateau of Germination (total percentage of germinated seeds), Sign.",[1]; [4],higher
same,"Time taken to reach 50% germination of corn, Sign.",[1]; [4],ns
same,"Uniformity of Germination (slope of the curve), Sign.",[1]; [4],ns
same,"Plateau of Germination (total percentage of germinated seeds), total % of germinated seeds",[1]; [4],105 percentage in comparison to the control
same,"Time taken to reach 50% germination of corn, Relative T50",[1]; [4],101.73 percentage in comparison to the control
same,"Uniformity of Germination (slope of the curve), Relative slope",[1]; [4],98 percentage in comparison to the control
same,"Plateau of Germination (total percentage of germinated seeds), Sign.",[1]; [5],higher
same,"Time taken to reach 50% germination of corn, Sign.",[1]; [5],Faster
same,"Uniformity of Germination (slope of the curve), Sign.",[1]; [5],more
same,"Plateau of Germination (total percentage of germinated seeds), total % of germinated seeds",[1]; [5],106 percentage in comparison to the control
same,"Time taken to reach 50% germination of corn, Relative T50",[1]; [5],93.1 percentage in comparison to the control
same,"Uniformity of Germination (slope of the curve), Relative slope",[1]; [5],233 percentage in comparison to the control
same,"Plateau of Germination (total percentage of germinated seeds), Sign.",[1]; [6],higher
same,"Time taken to reach 50% germination of corn, Sign.",[1]; [6],Faster
same,"Uniformity of Germination (slope of the curve), Sign.",[1]; [6],more
same,"Plateau of Germination (total percentage of germinated seeds), total % of germinated seeds",[1]; [6],105 percentage in comparison to the control
same,"Time taken to reach 50% germination of corn, Relative T50",[1]; [6],90.61 percentage in comparison to the control
same,"Uniformity of Germination (slope of the curve), Relative slope",[1]; [6],191 percentage in comparison to the control
same,"Plateau of Germination (total percentage of germinated seeds), Sign.",[1]; [7],ns
same,"Time taken to reach 50% germination of corn, Sign.",[1]; [7],Slower
same,"Uniformity of Germination (slope of the curve), Sign.",[1]; [7],less
same,"Plateau of Germination (total percentage of germinated seeds), total % of germinated seeds",[1]; [7],103.63 percentage in comparison to the control
same,"Time taken to reach 50% germination of corn, Relative T50",[1]; [7],107.32 percentage in comparison to the control
same,"Uniformity of Germination (slope of the curve), Relative slope",[1]; [7],80.22 percentage in comparison to the control
same,"Plateau of Germination (total percentage of germinated seeds), Sign.",[1]; [8],ns
same,"Time taken to reach 50% germination of corn, Sign.",[1]; [8],Slower
same,"Uniformity of Germination (slope of the curve), Sign.",[1]; [8],ns
same,"Plateau of Germination (total percentage of germinated seeds), total % of germinated seeds",[1]; [8],103.63 percentage in comparison to the control
same,"Time taken to reach 50% germination of corn, Relative T50",[1]; [8],105.17 percentage in comparison to the control
same,"Uniformity of Germination (slope of the curve), Relative slope",[1]; [8],93.8 percentage in comparison to the control
same,"Plateau of Germination (total percentage of germinated seeds), Sign.",[1]; [9],higher
same,"Time taken to reach 50% germination of corn, Sign.",[1]; [9],Faster
same,"Uniformity of Germination (slope of the curve), Sign.",[1]; [9],more
same,"Plateau of Germination (total percentage of germinated seeds), total % of germinated seeds",[1]; [9],105.39 percentage in comparison to the control
same,"Time taken to reach 50% germination of corn, Relative T50",[1]; [9],95.22 percentage in comparison to the control
same,"Uniformity of Germination (slope of the curve), Relative slope",[1]; [9],133.81 percentage in comparison to the control
same,"Plateau of Germination (total percentage of germinated seeds), Sign.",[1]; [10],ns
same,"Time taken to reach 50% germination of corn, Sign.",[1]; [10],Faster
same,"Uniformity of Germination (slope of the curve), Sign.",[1]; [10],more
same,"Plateau of Germination (total percentage of germinated seeds), total % of germinated seeds",[1]; [10],100.7 percentage in comparison to the control
same,"Time taken to reach 50% germination of corn, Relative T50",[1]; [10],92.47 percentage in comparison to the control
same,"Uniformity of Germination (slope of the curve), Relative slope",[1]; [10],176.64 percentage in comparison to the control
same,changes in germination rate and uniformity (corn),"[1]; isocycloseram 1, 5, 25 and 125 μM, 15° C. or 23° C., especially under the colder conditions and higher concentrations",significant changes in germination rate and uniformity
same,effect on corn seed germination kinetics,[1]; low temperature (15° C.),consistent effect
same,effect on wheat seed germination kinetics,[2]; increased salinity (salt stress),consistent effect
same,"Time taken to reach 50% germination of wheat, Sign.",[2]; isocycloseram 1 μM,Faster
same,"Time taken to reach 50% germination of wheat, Relative T50",[2]; isocycloseram 1 μM,95.27 percentage in comparison to the check
same,"Time taken to reach 50% germination of wheat, Sign.",[2]; isocycloseram 5 μM,Faster
same,"Time taken to reach 50% germination of wheat, Relative T50",[2]; isocycloseram 5 μM,94.70 percentage in comparison to the check
same,"Time taken to reach 50% germination of wheat, Sign.",[2]; isocycloseram 25 μM,Faster
same,"Time taken to reach 50% germination of wheat, Relative T50",[2]; isocycloseram 25 μM,93.07 percentage in comparison to the check
same,changes in germination speed (wheat),"[2]; isocycloseram 1, 5, and 25 μM, salt stress, 12.5 mM NaCl",significant changes in germination speed
